The values that follow come from ChEMBL document CHEMBL1148999, “Antimalarial agents, 2. Artesunate, an inhibitor of cytochrome oxidase activity in Plasmodium berghei” (J Nat Prod, 1986).

Calls of active or inactive are those of the source. The rule behind the calls is not given here.

The subject of assay [1] is Plasmodium berghei. As to the kind of experiment: Inhibition of Plasmodium berghei trophozoite cytochrome oxidase after 30 min by osmium black staining.
Assay [2] relates to Plasmodium berghei. Description: Inhibition of Plasmodium berghei trophozoite cytochrome oxidase at 1 mM after 30 min by osmium black staining.
Assay [3] deals with Plasmodium berghei. Description: Inhibition of Plasmodium berghei trophozoite cytochrome oxidase at 100 nM after 30 min by osmium black staining.
For assay [4], the system named is Plasmodium berghei. As to the kind of experiment: Inhibition of cytochrome oxidase in intraerythrocytic trophozoite of Plasmodium berghei infected CF1 mice (Mus musculus) at 100 mg/kg intravenous dose. The format is functional, organism-based. More on the design: dose 100 mg/kg.

In the case of `C[C@H]1[C@H](OC(=O)CCC(=O)O)O[C@@H]2O[C@@]3(C)CC[C@H]4[C@H](C)CC[C@@H]1[C@@]24OO3`, the Activity entry in the assay on Plasmodium berghei [1] is “Dose-dependent effect”. Also, the outcome with Plasmodium berghei [2] and in the assay with Plasmodium berghei [4] was Active. Moreover, in the assay with Plasmodium berghei [3], the result was inactive.
